“And” between values parts separate entries of the source, which are not always exact repeats. Equal values may be shown once.
Key:
[1] = tested on: ANGIOTENSIN II (A11) VASOPRESSOR RESPONSE; test: AII Challenge: blockade of angiotensin II vasopressor response in conscious SHR; assay type: in vivo, rat (Conscious Male Okamoto-Aoki SHR)
From the text: By administering a compound of this invention to a rat, and then challenging with angiotensin II, a blockage of the vasopressor response is realized.
Conscious Male Okamoto-Aoki SHR, 16-20 weeks old, weighing approximately 330 g are purchased from Charles River Labs (Wilmington, Mass.). Conscious rats are restrained in a supine position with elastic tape. The area at the base of the tail is locally anesthetized by subcutaneous infiltration with 2% procaine. The ventral caudal artery and vein are isolated, and a cannula made of polyethylene (PE) 10-20 tubing (fused together by heat) is passed into the lower abdominal aorta and vena cava, respectively. The cannula is secured, heparinized (1,000 I.U./ml), sealed and the wound is closed. The animals are placed in plastic restraining cages in an upright position. The cannula is attached to a Statham P23Db pressure transducer, and pulsatile blood pressure is recorded to 10-15 minutes with a Gould Brush recorder. (Chan et al., (Drug Development Res., 18:75-94, 1989).
Angiotensin II (human sequence, Sigma Chem. Co., St. Louis, Mo.) of 0.05 and 0.1 ug/kg i.v. is injected into all rats (predosing response). Then a test compound, vehicle or a known angiotensin II antagonist is administered i.v., i.p. or orally to each set of rats. […] The vasopressor response of angiotensin II is measured for the increase in systolic blood pressure in mmHg. The percentage of antagonism or blockade of the vasopressor response of angiotensin II by a compound is calculated using the vasopressor response (increase in systolic blood pressure) of angiotensin II of each rat predosing the compound as 100%. A compound is considered active if at 30 mg/kg i.v. it antagonized at least 50% of the response.

Angiotension II Receptor = test: Receptor Binding Assay: competition with [^125 I] (Sar^1,Ile^8) AngII on microsomal membranes; settings: pH 7.4, 60 min, room temperature
Procedure: Binding of [^125 I] (Sar^1,Ile^8) AngII
The binding of [^125 I] (Sar^1,Ile^8) AngII to microsomal membranes is initiated by the addition of reconstituted membranes (1:10 vols.) in freshly made 50.0 mMTris.HCl buffer, pH 7.4 containing 0.25% heat inactivated bovine serum albumin (BSA):80 ul membrane protein (10 to 20 ug/assay) to wells already containing 100 ul of incubation buffer (as described above) and 20 ul [^125 I] (Sar^1,Ile^8) AngII (Specific Activity, 2200 Ci/mmole). Non-specific binding is measured in the presence of 1.0 uM unlabeled (Sar^1,Ile^8) AngII, added in 20 ul volume. Specific binding for [^125 I] (Sar^1,Ile^8) AngII is greater than 90%. In competition studies, experimental compounds are diluted in dimethylsulfoxide (DMSO) and added in 20 ul to wells before the introduction of tissue membranes. This concentration of DMSO is found to have no negative effects on the binding of [^125 I] (Sar^1,Ile^8) AngII to the membranes. Assays are performed in triplicate. […] Presoaking the filter sheet in 0.1% polyethylenemine in normal saline (PEI/Saline) greatly reduces the radioactivity retained by the filter blanks. […] The filters are removed from the filter grid and counted in a Parkard® Cobra Gamma Counter for 1 min. […] The binding data are analyzed by the non-linear interactive "LUNDON-1" program (LUNDON SOFTWARE Inc., Cleveland, Ohio U.S.A.). […]

[2] = 15 mg/kg IV, AII 0.05 mcg/kg IV, 30 min post dose
[3] = 15 mg/kg IV, AII 0.05 mcg/kg IV, 60 min post dose
[4] = 15 mg/kg IV, AII 0.05 mcg/kg IV, 90 min post dose
[5] = 15 mg/kg IV, AII 0.1 mcg/kg IV, 30 min post dose
[6] = 15 mg/kg IV, AII 0.1 mcg/kg IV, 60 min post dose
[7] = 15 mg/kg IV, AII 0.1 mcg/kg IV, 90 min post dose
[8] = under second '15 IV' line, AII 0.05 mcg/kg IV, 120 min
[9] = under second '15 IV' line, AII 0.05 mcg/kg IV, 180 min
[10] = under second '15 IV' line, AII 0.1 mcg/kg IV, 120 min
[11] = under second '15 IV' line, AII 0.1 mcg/kg IV, 180 min

## CCCCc1nc2c(c(=O)n1Cc1ccc(-c3ccccc3-c3nnn[nH]3)cc1)CN(C(=O)OCc1ccccc1)CC2 [Example 7, Phenylmethyl 2-butyl-3,5,7,8-tetrahydro-4-oxo-3-[[2'-(1H-tetrazol-5-yl)[1,1' -biphenyl] -4-yl]methyl]pyrido[4,3-d]pyrimidin-6(4H)-carboxylate]
[1]; [2]
  Average % Inhibition (angiotensin blockage) of AII vasopressor response: 71%
  Average Change (systolic blood pressure response to AII): 11 mmHg
[1]; [3]
  Average % Inhibition (angiotensin blockage) of AII vasopressor response: 33%
  Average Change (systolic blood pressure response to AII): 25 mmHg
[1]; 15 mg/kg IV, AII 0.05 mcg/kg IV, 60 min post dose, 15 mg/kg
  Change (single reading, systolic blood pressure): 30 mmHg and 20 mmHg
[1]; [4]
  Average % Inhibition (angiotensin blockage) of AII vasopressor response: 31%
  Average Change (systolic blood pressure response to AII): 26 mmHg
[1]; 15 mg/kg IV, AII 0.05 mcg/kg IV, 90 min post dose, 15 mg/kg
  Change (single reading, systolic blood pressure): 30 mmHg and 22 mmHg
[1]; [5]
  Average % Inhibition (angiotensin blockage) of AII vasopressor response: 59%
  Average Change (systolic blood pressure response to AII): 17.5 mmHg
[1]; 15 mg/kg IV, AII 0.1 mcg/kg IV, 30 min post dose, 15 mg/kg
  Change (single reading, systolic blood pressure): 15 mmHg and 20 mmHg
[1]; [6]
  Average % Inhibition (angiotensin blockage) of AII vasopressor response: 11%
  Average Change (systolic blood pressure response to AII): 38 mmHg
[1]; 15 mg/kg IV, AII 0.1 mcg/kg IV, 60 min post dose, 15 mg/kg
  Change (single reading, systolic blood pressure): 40 mmHg and 36 mmHg
[1]; [7]
  Average % Inhibition (angiotensin blockage) of AII vasopressor response: 0%
  Average Change (systolic blood pressure response to AII): 42.5 mmHg
[1]; 15 mg/kg IV, AII 0.1 mcg/kg IV, 90 min post dose, 15 mg/kg
  Change (single reading, systolic blood pressure): 40 mmHg and 45 mmHg
[1]; 15 mg/kg IV, after AII 0.05 mcg/kg IV, 30 min post dose, 15 mg/kg
  Response After A11 (systolic blood pressure): 192 mmHg and 175 mmHg
[1]; 15 mg/kg IV, after AII 0.05 mcg/kg IV, 60 min post dose, 15 mg/kg
  Response After A11 (systolic blood pressure): 200 mmHg and 190 mmHg
[1]; 15 mg/kg IV, after AII 0.05 mcg/kg IV, 90 min post dose, 15 mg/kg
  Response After A11 (systolic blood pressure): 200 mmHg and 182 mmHg
[1]; 15 mg/kg IV, after AII 0.1 mcg/kg IV, 30 min post dose, 15 mg/kg
  Response After A11 (systolic blood pressure): 190 mmHg and 180 mmHg
[1]; 15 mg/kg IV, after AII 0.1 mcg/kg IV, 60 min post dose, 15 mg/kg
  Response After A11 (systolic blood pressure): 215 mmHg and 206 mmHg
[1]; 15 mg/kg IV, after AII 0.1 mcg/kg IV, 90 min post dose, 15 mg/kg
  Response After A11 (systolic blood pressure): 210 mmHg and 200 mmHg
[1]; 15 mg/kg IV, before AII 0.05 mcg/kg IV, 30 min post dose, 15 mg/kg
  Control Before A11 (systolic blood pressure): 185 mmHg and 160 mmHg
[1]; 15 mg/kg IV, before AII 0.05 mcg/kg IV, 60 min post dose
  Control Before A11 (systolic blood pressure): 170 mmHg
[1]; 15 mg/kg IV, before AII 0.05 mcg/kg IV, 90 min post dose, 15 mg/kg
  Control Before A11 (systolic blood pressure): 170 mmHg and 160 mmHg
[1]; 15 mg/kg IV, before AII 0.1 mcg/kg IV, 30 min post dose, 15 mg/kg
  Control Before A11 (systolic blood pressure): 175 mmHg and 160 mmHg
[1]; 15 mg/kg IV, before AII 0.1 mcg/kg IV, 60 min post dose, 15 mg/kg
  Control Before A11 (systolic blood pressure): 175 mmHg and 170 mmHg
[1]; 15 mg/kg IV, before AII 0.1 mcg/kg IV, 90 min post dose, 15 mg/kg
  Control Before A11 (systolic blood pressure): 170 mmHg and 155 mmHg
[1]; [8]
  Average % Inhibition (angiotensin blockage) of AII vasopressor response: 87%
  Average Change (systolic blood pressure response to AII): 5 mmHg
[1]; [9]
  Average % Inhibition (angiotensin blockage) of AII vasopressor response: 33%
  Average Change (systolic blood pressure response to AII): 25 mmHg
  Change (single reading, systolic blood pressure): 25 mmHg
[1]; [10]
  Average % Inhibition (angiotensin blockage) of AII vasopressor response: 81%
  Average Change (systolic blood pressure response to AII): 8 mmHg
  Change (single reading, systolic blood pressure): 6 mmHg and 10 mmHg
[1]; [11]
  Average % Inhibition (angiotensin blockage) of AII vasopressor response: 32%
  Average Change (systolic blood pressure response to AII): 29 mmHg
  Change (single reading, systolic blood pressure): 38 mmHg and 20 mmHg
[1]; under second '15 IV' line, after AII 0.05 mcg/kg IV, 120 min
  Response After A11 (systolic blood pressure): 195 mmHg and 185 mmHg
[1]; under second '15 IV' line, after AII 0.05 mcg/kg IV, 180 min
  Response After A11 (systolic blood pressure): 200 mmHg and 160 mmHg
[1]; under second '15 IV' line, after AII 0.1 mcg/kg IV, 120 min
  Response After A11 (systolic blood pressure): 176 mmHg and 180 mmHg
[1]; under second '15 IV' line, after AII 0.1 mcg/kg IV, 180 min
  Response After A11 (systolic blood pressure): 215 mmHg and 160 mmHg
[1]; under second '15 IV' line, before AII 0.05 mcg/kg IV, 120 min
  Control Before A11 (systolic blood pressure): 185 mmHg
[1]; under second '15 IV' line, before AII 0.05 mcg/kg IV, 180 min
  Control Before A11 (systolic blood pressure): 175 mmHg and 135 mmHg
[1]; under second '15 IV' line, before AII 0.1 mcg/kg IV, 120 min
  Control Before A11 (systolic blood pressure): 170 mmHg
[1]; under second '15 IV' line, before AII 0.1 mcg/kg IV, 180 min
  Control Before A11 (systolic blood pressure): 177 mmHg and 140 mmHg
Angiotension II Receptor
  IC50: 660 nM

— patent publication US5281602A, “Angiotensin II receptor blocking 2,3,6-substituted 5,6,7,8-tetrahydro-pyrido[4,3-D]pyrimidin-4(3H)-ones” (American Cyanamid Company, priority 1993, dated 1994)
